Test results as given in article PMC12670164, “In vitro and clinical data demonstrate negligible risk of drug–drug interactions with opelconazole, a novel inhaled antifungal agent” (Journal of Antimicrobial Chemotherapy, 2025).
Read-outs that look alike come from different tables or passages of the source.

Test system: CYP3A4
Procedure: The potential for opelconazole to act as an inducer of CYP isoforms CYP1A2, CYP2B6 and CYP3A4 was assessed in vitro using an mRNA endpoint across three donors in cryopreserved human hepatocytes.
A cytotoxicity assessment using MTT was performed in one of the three donors used for the induction studies prior to dosing.

Cc1cc(N2CCN(c3ccc(C(=O)Nc4ccc(F)cc4)cc3)CC2)ccc1OC[C@@H]1CO[C@@](Cn2cncn2)(c2ccc(F)cc2F)C1 [opelconazole]
CYP3A4 mRNA expression increase (donor 1, only at 0.3 μM, 72 h): 2.17 fold
CYP3A4 mRNA expression increase (donors 2 and 3, any concentration (0.012–3 μM)): < 2 fold
